Test results reported in US20260317324A1, “BIFUNCTIONAL COMPOUNDS FOR DEGRADING BRAF VIA UBIQUITIN PROTEOSOME PATHWAY” (Nurix Therapeutics, Inc., priority 2023, published 2026).

Experiments:
Type in all cases: cell-based
BRAF V600E = target: T1, BRAF V600E (Homo sapiens, UniProt P15056, V600E); test: BRAF HiBiT degradation assay, C-terminal HiBiT-tagged BRAF V600E A375 cells (clone 1F10), Nano-Glo HiBiT Lytic assay; details: for Dmax: A-375
T1 construct: endogenous C-terminal HiBiT fusion tag on BRAF V600E allele; endogenous in cells; host or cells: A375 clone 1F10 (CRISPR-Cas9 knock-in of the HiBiT tag; parental A375 from ATCC)
Outline: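 Luminescence from the Nano-Glo HiBiT lytic read-out gave % BRAF V600E remaining versus DMSO-treated tagged cells, with untagged A375 as background. Clone 1F10 cells (10,000/well, 24 h pre-culture) received compound at 1 μM–0.01 nM in half-log steps, 0.2% DMSO; curve fits gave DC50 at Y=50, plus observed Dmax.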

BRAF G469A = target: T2, BRAF G469A (Homo sapiens, UniProt P15056, G469A); test: BRAF HiBiT degradation assay, C-terminal HiBiT-tagged BRAF G469A overexpressed in HCT-116 BRAF−/− cells (clone 34), Nano-Glo HiBiT Lytic assay
T2 construct: Horizon Discovery (HCT-116 BRAF−/− cells); host or cells: HCT-116 BRAF−/− cells, clone 34, lentiviral transduction
Outline: (§1)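 Degradation was read by Nano-Glo HiBiT lytic luminescence, normalised to DMSO-treated tagged cells with wildtype HCT-116 as background. Test cells were lentiviral clones of HCT-116 BRAF−/− carrying HiBiT-tagged mutants in RPMI/10% FBS, given compound at 0.01 nM–1 μM in duplicate. Outputs are the curve-fitted concentration giving 50% degradation and the maximal observed degradation.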

BRAF D594G = target: T3, BRAF D594G (Homo sapiens, UniProt P15056, D594G); test: BRAF HiBiT degradation assay, C-terminal HiBiT-tagged BRAF D594G overexpressed in HCT-116 BRAF−/− cells (clone 63), Nano-Glo HiBiT Lytic assay
T3 construct: Horizon Discovery (HCT-116 BRAF−/− cells); host or cells: HCT-116 BRAF−/− cells, clone 63, lentiviral transduction
Outline: as §1

BRAF G466V = target: T4, BRAF G466V (Homo sapiens, UniProt P15056, G466V); test: BRAF HiBiT degradation assay, C-terminal HiBiT-tagged BRAF G466V overexpressed in HCT-116 BRAF−/− cells (clone 8), Nano-Glo HiBiT Lytic assay
T4 construct: Horizon Discovery (HCT-116 BRAF−/− cells); host or cells: HCT-116 BRAF−/− cells, clone 8, lentiviral transduction
Outline: as §1

[1] = A375 (BRAF V600E, Class 1), DC50 at 50% degradation
[2] = A375 (BRAF V600E, Class 1), observed Dmax, % protein degraded relative to DMSO control
[3] = BRAF G469A (Class 2), HCT-116 BRAF−/− cells, DC50 at 50% degradation
[4] = BRAF G469A (Class 2), HCT-116 BRAF−/− cells, observed Dmax relative to DMSO control
[5] = BRAF D594G (Class 3), HCT-116 BRAF−/− cells, DC50 at 50% degradation
[6] = BRAF D594G (Class 3), HCT-116 BRAF−/− cells, observed Dmax relative to DMSO control
[7] = BRAF G466V (Class 3), HCT-116 BRAF−/− cells, DC50 at 50% degradation
[8] = BRAF G466V (Class 3), HCT-116 BRAF−/− cells, observed Dmax relative to DMSO control
[9] = A375 (BRAF V600E), DC50 at 50%: fitted conc. at Y=50
[10] = A375 (BRAF V600E), percentage protein degraded at maximal compound effect relative to DMSO
[11] = Class 2, BRAF G469A, DC50 at 50%: fitted conc. at Y=50
[12] = HCT-116, Class 2, BRAF G469A, percentage protein degraded at maximal compound effect relative to DMSO
[13] = BRAF D594G, DC50 at 50%: fitted conc. at Y=50
[14] = HCT-116, BRAF D594G, percentage protein degraded at maximal compound effect relative to DMSO
[15] = BRAF G466V, DC50 at 50%: fitted conc. at Y=50
[16] = HCT-116, BRAF G466V, percentage protein degraded at maximal compound effect relative to DMSO

T3 sequence (P15056 whole entry D594G): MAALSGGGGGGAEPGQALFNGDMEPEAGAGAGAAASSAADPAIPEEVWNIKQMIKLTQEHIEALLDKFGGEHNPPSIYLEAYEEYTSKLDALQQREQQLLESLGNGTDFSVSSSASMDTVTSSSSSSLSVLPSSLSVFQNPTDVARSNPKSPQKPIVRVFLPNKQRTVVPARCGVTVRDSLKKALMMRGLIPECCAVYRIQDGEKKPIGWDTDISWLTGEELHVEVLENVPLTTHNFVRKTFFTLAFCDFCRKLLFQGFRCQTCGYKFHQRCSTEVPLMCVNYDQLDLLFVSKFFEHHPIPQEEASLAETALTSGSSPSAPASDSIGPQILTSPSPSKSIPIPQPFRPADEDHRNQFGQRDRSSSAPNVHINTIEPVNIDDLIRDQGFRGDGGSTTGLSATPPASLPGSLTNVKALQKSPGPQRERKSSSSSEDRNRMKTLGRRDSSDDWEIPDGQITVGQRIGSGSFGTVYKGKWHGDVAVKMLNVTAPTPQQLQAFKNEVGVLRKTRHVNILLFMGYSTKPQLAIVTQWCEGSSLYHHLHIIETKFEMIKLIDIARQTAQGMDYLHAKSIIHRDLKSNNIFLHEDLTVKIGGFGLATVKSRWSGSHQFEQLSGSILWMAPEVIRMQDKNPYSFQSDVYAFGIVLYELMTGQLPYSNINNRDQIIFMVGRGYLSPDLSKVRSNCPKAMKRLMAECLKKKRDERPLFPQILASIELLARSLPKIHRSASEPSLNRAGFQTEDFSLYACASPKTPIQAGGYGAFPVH
T2 sequence (P15056 whole entry G469A): as the sequence (P15056 whole entry D594G) above, with G469A, G594D counted along it
T4 sequence (P15056 whole entry G466V): as the sequence (P15056 whole entry D594G) above, with G466V, G594D counted along it
T1 sequence (P15056 whole entry V600E, the tested form may be a part): as the sequence (P15056 whole entry D594G) above, with G594D, V600E counted along it

Structure (SMILES)	DC50 (BRAF V600E; [1]) [nM]	Dmax (BRAF V600E; [2]) [%]	DC50 (BRAF G469A; [3]) [nM]	Dmax (BRAF G469A; [4]) [%]	DC50 (BRAF D594G; [5]) [nM]	Dmax (BRAF D594G; [6]) [%]	DC50 (BRAF G466V; [7]) [nM]	Dmax (BRAF G466V; [8]) [%]	DC50 (BRAF V600E; [9]) [nM]	Dmax (BRAF V600E; [10]) [%]	DC50 (BRAF G469A; [11]) [nM]	Dmax (BRAF G469A; [12]) [%]	DC50 (BRAF D594G; [13]) [nM]	Dmax (BRAF D594G; [14]) [%]	DC50 (BRAF G466V; [15]) [nM]	Dmax (BRAF G466V; [16]) [%]
C[C@@H]1CN(c2ccc(-n3cc(-c4cc(Cl)cc(NS(=O)(=O)N5CCCC5)c4F)c(-c4ccncc4)n3)nc2)CCN1CC1CCN(c2ccc(C3CCC(=O)NC3=O)cn2)CC1 (mixture of isomers) [Compound 323, N-[5-chloro-3-(1-{5-[(3R)-4-[(1-{5-[(3RS)-2,6-dioxopiperidin-3-yl]pyridin-2-yl}piperidin-4-yl)methyl]-3-methylpiperazin-1-yl]pyridin-2-yl}-3-(pyridin-4-yl)-1H-pyrazol-4-yl)-2-fluorophenyl]pyrrolidine-1-sulfonamide]	< 10	> 70	< 10	> 70	< 10	> 70	< 10	> 70	–	–	–	–	–	–	–	–
CCCS(=O)(=O)Nc1cccc(-c2nc(C3CCN(C(=O)C4CCN(C(=O)C5(C)CCN(c6ccc(C7CCC(=O)NC7=O)cn6)CC5)CC4)CC3)sc2-c2ccnc(N)n2)c1F (racemic) [Compound 193, Rac-N-{3-[5-(2-aminopyrimidin-4-yl)-2-{1-[1-(1-{5-[(3R)-2,6-dioxopiperidin-3-yl]pyridin-2-yl}-4-methylpiperidine-4-carbonyl)piperidine-4-carbonyl]piperidin-4-yl}-1,3-thiazol-4-yl]-2-fluorophenyl}propane-1-sulfonamide]	–	–	–	–	–	–	–	–	< 10	> 70	> 500	30 to 70	< 10	30 to 70	10 to 50	30 to 70
CCCS(=O)(=O)Nc1cccc(-c2nc(C3CCC4(CC3)CCN(C(=O)C3CCN(c5ccc(C(=O)NC6CCC(=O)NC6=O)nc5)CC3)CC4)sc2-c2ccnc(N)n2)c1F (racemic) [Compound 252, Rac-5-(4-{9-[5-(2-aminopyrimidin-4-yl)-4-[2-fluoro-3-(propane-1-sulfonamido)phenyl]-1,3-thiazol-2-yl]-3-azaspiro[5.5]undecane-3-carbonyl}piperidin-1-yl)-N-[(3R)-2,6-dioxopiperidin-3-yl]pyridine-2-carboxamide]	10 to 50	> 70	> 500	< 30	> 500	< 30	> 500	< 30	–	–	–	–	–	–	–	–
C[C@@H]1CN(c2ccc(-n3cc(-c4cc(Cl)cc(NS(=O)(=O)N5CC[C@@H](F)C5)c4F)c(-c4ccncc4)n3)cc2)CCN1CC1CCN(c2ccc(C3CCC(=O)NC3=O)cn2)CC1 (mixture of isomers) [Compound 318, (3R)—N-[5-chloro-3-(1-{4-[(3R)-4-[(1-{5-[(3RS)-2,6-dioxopiperidin-3-yl]pyridin-2-yl}piperidin-4-yl)methyl]-3-methylpiperazin-1-yl]phenyl}-3-(pyridin-4-yl)-1H-pyrazol-4-yl)-2-fluorophenyl]-3-fluoropyrrolidine-1-sulfonamide]	< 10	> 70	< 10	> 70	< 10	> 70	< 10	> 70	–	–	–	–	–	–	–	–
CCCS(=O)(=O)Nc1cccc(-c2nc(C(C)(C)C)sc2-c2ccnc(NCC(C)(C)C3CCN(CC4CCN(c5ccc(C(=O)N[C@H]6CCC(=O)NC6=O)nc5)CC4)CC3)n2)c1F [Compound 146, 5-{4-[(4-{1-[(4-{2-tert-butyl-4-[2-fluoro-3-(propane-1-sulfonamido)phenyl]-1,3-thiazol-5-yl}pyrimidin-2-yl)amino]-2-methylpropan-2-yl}piperidin-1-yl)methyl]piperidin-1-yl}-N-[(3S)-2,6-dioxopiperidin-3-yl]pyridine-2-carboxamide]	–	–	–	–	–	–	–	–	50 to 500	30 to 70	> 500	30 to 70	> 500	30 to 70	< 10	30 to 70
